Test results as given in ChEMBL document CHEMBL4334548, “Discovery of Isoxazole Amides as Potent and Selective SMYD3 Inhibitors” (ACS Med Chem Lett, 2020).
≈ marks a conversion by molar mass, not a printed value.

How the values were obtained:
[1] = Solubility of compound by CLND method; type: physicochemical
[2] = Permeability of compound; type: ADME; details: not told; read-out: permeability
[3] = Volume of distribution in Sprague-Dawley rat at 1 mg/kg, iv or 2 mg/kg, po; type: ADME, organism-based; details: in vivo
[4] = AUC in Sprague-Dawley rat at 2 mg/kg, po; type: ADME, organism-based; details: in vivo
[5] = Oral bioavailability in Sprague-Dawley rat at 2 mg/kg; type: ADME, organism-based; details: in vivo; for bioavailability: Sprague-Dawley
[6] = Clearance in Sprague-Dawley rat at 1 mg/kg, iv or 2 mg/kg, po; type: ADME, organism-based; details: in vivo
[7] = Half life in Sprague-Dawley rat at 1 mg/kg, iv or 2 mg/kg, po; type: ADME, organism-based; details: in vivo
[8] = Volume of distribution in Sprague-Dawley rat at 0.5 mg/kg, iv or 2 mg/kg, po; type: ADME, organism-based; details: in vivo
[9] = Half life in Sprague-Dawley rat at 0.5 mg/kg, iv or 2 mg/kg, po; type: ADME, organism-based; details: in vivo
[10] = Clearance in Sprague-Dawley rat at 0.5 mg/kg, iv or 2 mg/kg, po; type: ADME, organism-based; details: in vivo

Row | SMILES | solubility kinetic [1] | Papp [2] | other results
1 | CN(C)Cc1ccc(S(=O)(=O)N2CCC(NC(=O)c3cc(C4CC4)on3)CC2)cc1 | 130 µM (≈ 56.2 µg/mL) | 20 ×10⁻⁶ cm/s | –
2 | N[C@H]1CC[C@@H](S(=O)(=O)N2CCC(NC(=O)c3cc(C4CC4)on3)CC2)CC1 | 420 µM (≈ 167 µg/mL) | < 1 ×10⁻⁶ cm/s | –
3 | CC(C)(C)CN[C@H]1CC[C@H](CS(=O)(=O)N2CCC(NC(=O)c3cc(C4CC4)on3)CC2)CC1 | 367 µM (≈ 176 µg/mL) | 14 ×10⁻⁶ cm/s | –
4 | O=C(NC1CCN(S(=O)(=O)c2ccc(CN3CCCCC3)cc2)CC1)c1cc(C2CC2)on1 | 26 µM (≈ 12.3 µg/mL) | 7.9 ×10⁻⁶ cm/s | –
5 | O=C(NC1CCN(S(=O)(=O)C[C@H]2CC[C@H](NCc3cccnc3)CC2)CC1)c1cc(C2CC2)on1 | 194 µM (≈ 97.3 µg/mL) | 5.5 ×10⁻⁶ cm/s | –
6 | CN(CCCC(F)(F)F)[C@H]1CC[C@H](CS(=O)(=O)N2CCC(NC(=O)c3cc(C4CC4)on3)CC2)CC1 | 14 µM (≈ 7.49 µg/mL) | – | –
7 | O=C(NC1CCN(S(=O)(=O)C[C@H]2CC[C@H](NCc3ccccn3)CC2)CC1)c1cc(C2CC2)on1 | 52 µM (≈ 26.1 µg/mL) | 6.4 ×10⁻⁶ cm/s | –
8 | CCS(=O)(=O)N1CCC(NC(=O)c2cc(C3CC3)on2)CC1 | 306 µM (≈ 100 µg/mL) | 24 ×10⁻⁶ cm/s | –
9 | O=C(NC1CCN(S(=O)(=O)C[C@H]2CC[C@H](NCc3ccc(F)cn3)CC2)CC1)c1cc(C2CC2)on1 | 141 µM (≈ 73.3 µg/mL) | 19 ×10⁻⁶ cm/s | Vd [3]: 12 L/kg; AUC ([4]; Sprague-Dawley, read-out: AUC): 578 ng·h/mL; bioavailability [5]: 59%; clearance [6]: 17 mL/min/kg; half-life [7]: 10.8 h
10 | CN(C)[C@H]1CC[C@H](CS(=O)(=O)N2CCC(NC(=O)c3cc(C4CC4)on3)CC2)CC1 | 126 µM (≈ 55.3 µg/mL) | < 1 ×10⁻⁶ cm/s | –
11 | O=C(NC1CCN(S(=O)(=O)C[C@H]2CC[C@H](NCCCC(F)(F)F)CC2)CC1)c1cc(C2CC2)on1 | 9 µM (≈ 4.69 µg/mL) | 14 ×10⁻⁶ cm/s | AUC ([4]; Sprague-Dawley, read-out: AUC): 676 ng·h/mL; Vd [8]: 18.9 L/kg; bioavailability [5]: 79%; half-life [9]: 12.8 h; clearance [10]: 20 mL/min/kg
12 | O=C(NC1CCN(S(=O)(=O)C[C@H]2CC[C@H](NCc3cccc(Cl)c3)CC2)CC1)c1cc(C2CC2)on1 | 4 µM (≈ 2.14 µg/mL) | 18 ×10⁻⁶ cm/s | –
13 | O=C(NC1CCN(S(=O)(=O)C[C@H]2CC[C@H](NCc3ccccc3)CC2)CC1)c1cc(C2CC2)on1 | 1 µM (≈ 0.501 µg/mL) | – | AUC ([4]; Sprague-Dawley, read-out: AUC): 149 ng·h/mL; Vd [8]: 16.1 L/kg; bioavailability [5]: 79%; half-life [9]: 3.6 h; clearance [10]: 90 mL/min/kg
14 | NCCS(=O)(=O)N1CCC(NC(=O)c2cc(C3CC3)on2)CC1 | 375 µM (≈ 128 µg/mL) | < 1 ×10⁻⁶ cm/s | –
15 | O=C(NC1CCN(S(=O)(=O)C[C@H]2CC[C@H](NCc3cc(F)ccn3)CC2)CC1)c1cc(C2CC2)on1 | – | 6.6 ×10⁻⁶ cm/s | –
16 | O=C(NC1CCN(S(=O)(=O)C[C@H]2CC[C@H](NCc3cccc(F)c3)CC2)CC1)c1cc(C2CC2)on1 | 277 µM (≈ 144 µg/mL) | 20 ×10⁻⁶ cm/s | –
17 | CCCN[C@H]1CC[C@H](CS(=O)(=O)N2CCC(NC(=O)c3cc(C4CC4)on3)CC2)CC1 | 143 µM (≈ 64.7 µg/mL) | 3.5 ×10⁻⁶ cm/s | –
18 | O=C(NC1CCN(S(=O)(=O)[C@H]2CC[C@H](NCCCC(F)(F)F)CC2)CC1)c1cc(C2CC2)on1 | – | – | Vd [3]: 12.5 L/kg; AUC ([4]; Sprague-Dawley, read-out: AUC): 967 ng·h/mL; bioavailability [5]: 86%; clearance [6]: 20 mL/min/kg; half-life [7]: 8.6 h
19 | O=C(NC1CCN(S(=O)(=O)c2ccc(CN3CCC3)cc2)CC1)c1cc(C2CC2)on1 | 302 µM (≈ 134 µg/mL) | 16 ×10⁻⁶ cm/s | –
20 | O=C(NC1CCN(S(=O)(=O)C[C@H]2CC[C@H](NCc3ccccc3F)CC2)CC1)c1cc(C2CC2)on1 | 297 µM (≈ 154 µg/mL) | 32 ×10⁻⁶ cm/s | Vd [3]: 9.4 L/kg; AUC [4]: 87 ng·h/mL; F [5]: 65%; half-life [7]: 1.7 h
21 | N[C@H]1CC[C@H](CS(=O)(=O)N2CCC(NC(=O)c3cc(C4CC4)on3)CC2)CC1 | 297 µM (≈ 122 µg/mL) | < 1 ×10⁻⁶ cm/s | –
22 | O=C(NC1CCN(S(=O)(=O)C[C@H]2CC[C@H](NCc3ccncc3)CC2)CC1)c1cc(C2CC2)on1 | 26 µM (≈ 13 µg/mL) | 4.5 ×10⁻⁶ cm/s | –
23 | Cc1ccc(CN[C@H]2CC[C@H](CS(=O)(=O)N3CCC(NC(=O)c4cc(C5CC5)on4)CC3)CC2)cc1 | 10 µM (≈ 5.15 µg/mL) | 14 ×10⁻⁶ cm/s | –
24 | Cc1ccccc1CN[C@H]1CC[C@H](CS(=O)(=O)N2CCC(NC(=O)c3cc(C4CC4)on3)CC2)CC1 | 15 µM (≈ 7.72 µg/mL) | – | –

Row | SMILES | solubility kinetic [1] | Papp [2] | other results
25 | O=C(NC1CCN(S(=O)(=O)C2CCNCC2)CC1)c1cc(C2CC2)on1 | 515 µM (≈ 197 µg/mL) | 0.69 ×10⁻⁶ cm/s | AUC ([4]; Sprague-Dawley, read-out: AUC): 123 ng·h/mL; Vd [8]: 4.5 L/kg; bioavailability [5]: 27%; half-life [9]: 2.7 h; clearance [10]: 37 mL/min/kg
26 | O=C(NC1CCN(S(=O)(=O)c2ccc(CN3CCCC3)cc2)CC1)c1cc(C2CC2)on1 | 122 µM (≈ 55.9 µg/mL) | 13 ×10⁻⁶ cm/s | AUC ([4]; Sprague-Dawley, read-out: AUC): 295 ng·h/mL; Vd [8]: 6.7 L/kg; half-life [9]: 1.7 h; clearance [10]: 68 mL/min/kg
27 | CCN1CCC(S(=O)(=O)N2CCC(NC(=O)c3cc(C4CC4)on3)CC2)CC1 | 502 µM (≈ 206 µg/mL) | 5.2 ×10⁻⁶ cm/s | –
28 | CCN[C@H]1CC[C@H](CS(=O)(=O)N2CCC(NC(=O)c3cc(C4CC4)on3)CC2)CC1 | 295 µM (≈ 129 µg/mL) | < 0.3 ×10⁻⁶ cm/s | –
29 | NCCCCS(=O)(=O)N1CCC(NC(=O)c2cc(C3CC3)on2)CC1 | 385 µM (≈ 143 µg/mL) | < 1 ×10⁻⁶ cm/s | –
30 | O=C(NC1CCN(S(=O)(=O)C[C@H]2CC[C@H](NCc3ccc(Cl)cn3)CC2)CC1)c1cc(C2CC2)on1 | 14 µM (≈ 7.51 µg/mL) | 22 ×10⁻⁶ cm/s | –
31 | O=C(NC1CCN(S(=O)(=O)C[C@H]2CC[C@H](NCc3cncc(F)c3)CC2)CC1)c1cc(C2CC2)on1 | 12 µM (≈ 6.24 µg/mL) | 11 ×10⁻⁶ cm/s | –
32 | O=C(NC1CCN(S(=O)(=O)C2CCNC2)CC1)c1cc(C2CC2)on1 (stereo not given) | 406 µM (≈ 150 µg/mL) | 2.4 ×10⁻⁶ cm/s | –
33 | CN1CCC(S(=O)(=O)N2CCC(NC(=O)c3cc(C4CC4)on3)CC2)CC1 | 474 µM (≈ 188 µg/mL) | 5.6 ×10⁻⁶ cm/s | –
34 | O=C(NC1CCN(S(=O)(=O)C[C@H]2CC[C@H](NCc3ccc(Cl)cc3)CC2)CC1)c1cc(C2CC2)on1 | 6 µM (≈ 3.21 µg/mL) | 44 ×10⁻⁶ cm/s | Vd [3]: 14.7 L/kg; AUC ([4]; Sprague-Dawley, read-out: AUC): 365 ng·h/mL; bioavailability [5]: 70%; clearance [6]: 36 mL/min/kg; half-life [7]: 7.3 h
35 | CCN(CCCC(F)(F)F)[C@H]1CC[C@H](CS(=O)(=O)N2CCC(NC(=O)c3cc(C4CC4)on3)CC2)CC1 | 53 µM (≈ 29.1 µg/mL) | 41 ×10⁻⁶ cm/s | –
36 | CC(C)CN[C@H]1CC[C@H](CS(=O)(=O)N2CCC(NC(=O)c3cc(C4CC4)on3)CC2)CC1 | 434 µM (≈ 203 µg/mL) | 6.1 ×10⁻⁶ cm/s | –
37 | CCCCN[C@H]1CC[C@H](CS(=O)(=O)N2CCC(NC(=O)c3cc(C4CC4)on3)CC2)CC1 | 234 µM (≈ 109 µg/mL) | 6.8 ×10⁻⁶ cm/s | –
38 | N[C@H]1CC[C@H](S(=O)(=O)N2CCC(NC(=O)c3cc(C4CC4)on3)CC2)CC1 | 329 µM (≈ 130 µg/mL) | < 1 ×10⁻⁶ cm/s | –
39 | O=C(NC1CCN(S(=O)(=O)C[C@H]2CC[C@H](NCc3ccccc3Cl)CC2)CC1)c1cc(C2CC2)on1 | 6 µM (≈ 3.21 µg/mL) | 20 ×10⁻⁶ cm/s | –
40 | NCc1ccc(S(=O)(=O)N2CCC(NC(=O)c3cc(C4CC4)on3)CC2)cc1 | 295 µM (≈ 119 µg/mL) | 5.2 ×10⁻⁶ cm/s | Vd [8]: 2.3 L/kg; half-life [9]: 0.2 h; clearance [10]: 311 mL/min/kg
41 | Cc1cccc(CN[C@H]2CC[C@H](CS(=O)(=O)N3CCC(NC(=O)c4cc(C5CC5)on4)CC3)CC2)c1 | 21 µM (≈ 10.8 µg/mL) | 17 ×10⁻⁶ cm/s | –
42 | CC(C)(C)CCN[C@H]1CC[C@H](CS(=O)(=O)N2CCC(NC(=O)c3cc(C4CC4)on3)CC2)CC1 | 10 µM (≈ 4.95 µg/mL) | 18 ×10⁻⁶ cm/s | –
43 | O=C(NC1CCN(S(=O)(=O)C[C@H]2CC[C@H](NCCC(F)(F)F)CC2)CC1)c1cc(C2CC2)on1 | 48 µM (≈ 24.3 µg/mL) | 16 ×10⁻⁶ cm/s | –
44 | NC[C@H]1CC[C@H](S(=O)(=O)N2CCC(NC(=O)c3cc(C4CC4)on3)CC2)CC1 | 479 µM (≈ 197 µg/mL) | < 1 ×10⁻⁶ cm/s | –
45 | Cc1ccc(CN[C@H]2CC[C@H](CS(=O)(=O)N3CCC(NC(=O)c4cc(C5CC5)on4)CC3)CC2)nc1 | 61 µM (≈ 31.5 µg/mL) | 8.9 ×10⁻⁶ cm/s | –
46 | CN[C@H]1CC[C@H](CS(=O)(=O)N2CCC(NC(=O)c3cc(C4CC4)on3)CC2)CC1 | 297 µM (≈ 126 µg/mL) | < 1 ×10⁻⁶ cm/s | –
47 | O=C(NC1CCN(S(=O)(=O)CCCN2CCCC2)CC1)c1cc(C2CC2)on1 | 410 µM (≈ 168 µg/mL) | 5 ×10⁻⁶ cm/s | –
48 | O=C(NC1CCN(S(=O)(=O)C[C@H]2CC[C@H](NCc3ccc(F)cc3)CC2)CC1)c1cc(C2CC2)on1 | 3 µM (≈ 1.56 µg/mL) | – | –
